Test results reported in ChEMBL document CHEMBL1156115, “The design of potent and selective inhibitors of DPP-4: optimization of ADME properties by amide replacements” (Bioorg Med Chem Lett, 2009).
The source made the active and inactive calls. The rule behind the calls is not given here.

Tests used:
[1] = Half life in human liver microsomes at 3 uM; type: ADME, Microsome
[2] = Half life in rat liver microsomes at 3 uM; type: ADME, Microsome
[3] = target: Dipeptidyl peptidase 2 (Homo sapiens, UniProt Q9UHL4); assay: Inhibition of DPP7
[4] = Distribution coefficient, log D of the compound; type: physicochemical; settings: octanol/water
[5] = (§1) Apparent permeability from apical to basolateral side of human Caco-2 cells; type: ADME, cell-based
[6] = (§2) Apparent permeability from basolateral to apical side of human Caco-2 cells; type: ADME, cell-based
[7] = target: T1, Prolyl endopeptidase (Homo sapiens, UniProt P48147); assay: Inhibition of human POP expressed in Escherichia coli after 30 mins by continuous fluorescent assay
T1 sequence (P48147 whole entry): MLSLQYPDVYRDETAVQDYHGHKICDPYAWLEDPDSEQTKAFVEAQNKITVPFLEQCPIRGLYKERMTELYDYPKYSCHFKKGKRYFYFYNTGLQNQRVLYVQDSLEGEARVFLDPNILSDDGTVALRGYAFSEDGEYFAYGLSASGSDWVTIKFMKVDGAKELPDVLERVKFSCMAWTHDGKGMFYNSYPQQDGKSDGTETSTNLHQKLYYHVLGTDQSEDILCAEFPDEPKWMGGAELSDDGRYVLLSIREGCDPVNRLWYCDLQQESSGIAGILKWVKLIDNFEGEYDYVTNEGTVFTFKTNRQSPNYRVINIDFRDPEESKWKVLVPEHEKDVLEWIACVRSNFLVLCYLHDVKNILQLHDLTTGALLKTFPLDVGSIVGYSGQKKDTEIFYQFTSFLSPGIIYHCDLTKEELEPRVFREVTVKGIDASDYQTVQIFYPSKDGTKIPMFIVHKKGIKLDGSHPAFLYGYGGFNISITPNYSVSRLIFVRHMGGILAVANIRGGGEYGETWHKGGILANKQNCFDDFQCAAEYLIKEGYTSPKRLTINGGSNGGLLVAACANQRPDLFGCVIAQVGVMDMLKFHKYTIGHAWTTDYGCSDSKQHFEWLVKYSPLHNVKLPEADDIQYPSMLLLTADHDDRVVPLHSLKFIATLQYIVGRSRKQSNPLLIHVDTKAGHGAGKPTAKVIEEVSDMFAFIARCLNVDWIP

[8] = target: Dipeptidyl peptidase 4 (Mus musculus) (UniProt P28843); assay: Inhibition of DPP4 in mouse plasma up to 60 mins; type: cell-free
[9] = Apparent volume of distribution in Wistar rat at 1 mg/kg, iv or 3 mg/kg, po; type: ADME, organism-based; settings: in vivo, read-out: Vz
[10] = test system: Mus musculus; assay: Antihyperglycemic activity in obese mouse diabetic model assessed as reduction in peak glucose excursion at 3 mg/kg, po administered 30 mins before glucose challenge by oral glucose tolerance test; type: functional, organism-based; set-up: dose 3 mg/kg
[11] = target: Dipeptidyl peptidase 4 (Mus musculus) (UniProt P28843); assay: Inhibition of DPP4 in mouse plasma up to 180 mins; type: cell-free
[12] = Oral bioavailability in Wistar rat at 3 mg/kg; type: ADME, organism-based; settings: in vivo
[13] = Half life in Wistar rat at 1 mg/kg, iv or 3 mg/kg, po; type: ADME, organism-based; settings: in vivo
[14] = Clearance in Wistar rat at 1 mg/kg, iv or 3 mg/kg, po; type: ADME, organism-based; settings: in vivo
[15] = test system: Caco-2; assay: as §1; type: ADME, cell-based
[16] = test system: Caco-2; assay: as §2; type: ADME, cell-based

Chain of Dipeptidyl peptidase 4 (Mus musculus) (P28843 whole entry, looked up): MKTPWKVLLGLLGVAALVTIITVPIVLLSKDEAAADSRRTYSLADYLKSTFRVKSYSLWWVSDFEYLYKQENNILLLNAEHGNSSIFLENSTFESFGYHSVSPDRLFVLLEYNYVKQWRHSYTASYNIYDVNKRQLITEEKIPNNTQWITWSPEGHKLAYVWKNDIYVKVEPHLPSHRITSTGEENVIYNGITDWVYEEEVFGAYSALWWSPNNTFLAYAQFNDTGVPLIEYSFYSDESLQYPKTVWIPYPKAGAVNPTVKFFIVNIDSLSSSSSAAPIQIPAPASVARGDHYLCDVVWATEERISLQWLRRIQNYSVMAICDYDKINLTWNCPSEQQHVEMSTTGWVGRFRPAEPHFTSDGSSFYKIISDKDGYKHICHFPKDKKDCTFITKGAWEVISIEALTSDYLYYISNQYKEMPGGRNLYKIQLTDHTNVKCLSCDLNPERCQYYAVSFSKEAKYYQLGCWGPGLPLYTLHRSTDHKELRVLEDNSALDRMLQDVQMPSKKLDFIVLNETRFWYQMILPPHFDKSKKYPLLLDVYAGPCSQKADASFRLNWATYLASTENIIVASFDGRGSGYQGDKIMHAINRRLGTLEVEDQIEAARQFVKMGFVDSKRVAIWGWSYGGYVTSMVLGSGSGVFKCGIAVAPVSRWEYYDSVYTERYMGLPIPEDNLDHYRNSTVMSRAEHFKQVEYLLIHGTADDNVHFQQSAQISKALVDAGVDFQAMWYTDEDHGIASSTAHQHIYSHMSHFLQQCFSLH

half-life at 3 µM [1]	half-life at 3 µM [2]	IC50 [3]	logD [4]	IC50 [7]	Compound	other results
> 2 h	1.18 h	3.8 µM	1.61		N[C@@H](CC(=O)N1CCC[C@H]1c1nc(C2CC2)no1)Cc1cc(F)c(F)cc1F	Papp A→B [5]: 21 ×10⁻⁶ cm/s; Papp B→A [6]: 52 ×10⁻⁶ cm/s
		2.8 µM			N[C@@H](CC(=O)N1CCC[C@H]1c1nc(C2(C(F)(F)F)CC2)no1)Cc1cc(F)c(F)cc1F	
		2.3 µM		> 100 µM	N[C@@H](CC(=O)N1CCC[C@H]1c1nc(-c2cnccn2)no1)Cc1cc(F)c(F)cc1F	
> 2 h	> 2 h	2 µM	1.32	> 100 µM	N[C@@H](CC(=O)N1CCC[C@H]1c1nc(-c2ncc(F)cc2F)no1)Cc1cc(F)c(F)cc1F	inhibition [8]: 79%; Vd [9]: 17.7 L/kg; Activity [10]: Active; inhibition [11]: 64%; bioavailability [12]: 56%; half-life [13]: 2.4 h; clearance [14]: 100 mL/min/kg; Papp A→B [5]: 3 ×10⁻⁶ cm/s; Papp B→A [6]: 73 ×10⁻⁶ cm/s
		5.6 µM		> 100 µM	N[C@@H](CC(=O)N1CCC[C@H]1c1nc(N2CCOCC2)no1)Cc1cc(F)c(F)cc1F	
1.33 h	0.133 h	7 µM	1.85	39 µM	CC(C)(C)c1noc([C@@H]2CCCN2C(=O)C[C@H](N)Cc2cc(F)c(F)cc2F)n1	Vd [9]: 20.5 L/kg; bioavailability [12]: 3%; half-life [13]: 1.6 h; clearance [14]: 120 mL/min/kg; Papp A→B [5]: 20 ×10⁻⁶ cm/s; Papp B→A [6]: 49 ×10⁻⁶ cm/s
		0.886 µM			N[C@@H](CC(=O)N1CCC[C@H]1c1nc(-c2ccccn2)no1)Cc1cc(F)c(F)cc1F	
		4 µM		> 100 µM	N[C@@H](CC(=O)N1CCC[C@H]1c1nc(CC2CC2)no1)Cc1cc(F)c(F)cc1F	
		23 µM			N[C@@H](CC(=O)N1CCC[C@H]1c1noc(C2(O)CC2)n1)Cc1cc(F)c(F)cc1F	
		11 µM		> 100 µM	N[C@@H](CC(=O)N1CCC[C@H]1c1noc(C2CC2)n1)Cc1cc(F)c(F)cc1F	
		17 µM			CC(=O)N1CC(c2noc([C@@H]3CCCN3C(=O)C[C@H](N)Cc3cc(F)c(F)cc3F)n2)C1	
> 2 h	1 h	10 µM	2.16		N[C@@H](CC(=O)N1CCC[C@H]1c1noc(C2(C(F)(F)F)CC2)n1)Cc1cc(F)c(F)cc1F	Vd [9]: 17.5 L/kg; bioavailability [12]: 43%; half-life [13]: 2.3 h; clearance [14]: 115 mL/min/kg; Papp A→B [5]: 23 ×10⁻⁶ cm/s; Papp B→A [6]: 49 ×10⁻⁶ cm/s
		36 µM		> 100 µM	CC(C)(C)c1nc([C@@H]2CCCN2C(=O)C[C@H](N)Cc2cc(F)c(F)cc2F)no1	
> 2 h	1.7 h	16 µM	1.46	> 100 µM	CC(C)(F)c1nc([C@@H]2CCCN2C(=O)C[C@H](N)Cc2cc(F)c(F)cc2F)no1	inhibition [8]: 70%; Vd [9]: 2.9 L/kg; Activity [10]: Active; inhibition [11]: 56%; bioavailability [12]: 100%; half-life [13]: 1 h; clearance [14]: 31.7 mL/min/kg; Papp A→B [5]: 14 ×10⁻⁶ cm/s; Papp B→A [6]: 62 ×10⁻⁶ cm/s
		3.2 µM		> 100 µM	N[C@@H](CC(=O)N1CCC[C@H]1c1nc(N2CCCC2)no1)Cc1cc(F)c(F)cc1F	
> 2 h	> 2 h	3.8 µM	0.96		CS(=O)(=O)N1CC(c2noc([C@@H]3CCCN3C(=O)C[C@H](N)Cc3cc(F)c(F)cc3F)n2)C1	Papp [15]: 0.15 ×10⁻⁶ cm/s; Papp [16]: 28 ×10⁻⁶ cm/s
		2.2 µM			N[C@@H](CC(=O)N1CCC[C@H]1c1nc(-c2ncccn2)no1)Cc1cc(F)c(F)cc1F	
		14 µM			N[C@@H](CC(=O)N1CCC[C@H]1c1noc(C2(F)CC2)n1)Cc1cc(F)c(F)cc1F	
		38 µM		> 100 µM	CC1(c2nc([C@@H]3CCCN3C(=O)C[C@H](N)Cc3cc(F)c(F)cc3F)no2)COC1	
